The numbers were not newly measured in patent publication US20070178051A1, “STERILIZED NANOPARTICULATE GLUCOCORTICOSTEROID FORMULATIONS” (Elan Pharma International, Ltd., priority 2006, published 2007), which cites them from elsewhere.

As to `CCC(=O)O[C@]1(C(=O)SCF)[C@H](C)C[C@H]2[C@@H]3C[C@H](F)C4=CC(=O)C=C[C@]4(C)[C@@]3(F)[C@@H](O)C[C@@]21C` [Fluticasone propionate, S-(fluoromethyl) 6a,9-difluoro-11b, 17-dihydroxy-16a-methyl-3-oxoandrosta-1,4-diene-17b-carbothioate, 17-propionate], the solubility in water result is “practically insoluble”.
`CCCC1O[C@@H]2C[C@H]3C4CCC5=CC(=O)C=CC5(C)[C@H]4[C@@H](O)CC3(C)C2(C(=O)CO)O1` (mixture of isomers) [Budesonide, (RS)-11,16,17,21-Tetrahydroxy-pregna-1,4-diene-3,20-dione cyclic 16,17-acetal with butraldehyde]: the solubility in water result was “practically insoluble”. The solubility in chloroform entry (chloroform) is “freely soluble”. Moreover, the solubility in ethanol result (ethanol) was “sparingly soluble”. Moreover, for the setting “heptane”, the solubility in heptane entry is “practically insoluble”.
